Laboratory results from patent US9040523B2, “Antifungal 5,6-dihydro-4H-pyrrolo[1,2-α][1,4]-benzodiazepines and 6H-pyrrolo[1,2-α][1,4]benzodiazepines substituted with benzene derivatives” (JANSSEN PHARMACEUTICA NV, priority 2010, dated 2015).

How the values were obtained:
CYP3A4 = CYP3A4 (Homo sapiens, UniProt P08684); assay: Cytochrome P450 inhibition, Protocol A, cDNA expressed proteins, fluorogenic substrates; type: in vitro ADME; details: % inhibition at 10 μM, cDNA expressed protein; for hCYP3A4_BFC_Pct_Inh: substrate BFC; for hCYP3A4_BQ_Pct_Inh: substrate BQ; for hCYP3A4_DBF_Pct_Inh: substrate DBF
CYP3A4, sequence (P08684 whole entry): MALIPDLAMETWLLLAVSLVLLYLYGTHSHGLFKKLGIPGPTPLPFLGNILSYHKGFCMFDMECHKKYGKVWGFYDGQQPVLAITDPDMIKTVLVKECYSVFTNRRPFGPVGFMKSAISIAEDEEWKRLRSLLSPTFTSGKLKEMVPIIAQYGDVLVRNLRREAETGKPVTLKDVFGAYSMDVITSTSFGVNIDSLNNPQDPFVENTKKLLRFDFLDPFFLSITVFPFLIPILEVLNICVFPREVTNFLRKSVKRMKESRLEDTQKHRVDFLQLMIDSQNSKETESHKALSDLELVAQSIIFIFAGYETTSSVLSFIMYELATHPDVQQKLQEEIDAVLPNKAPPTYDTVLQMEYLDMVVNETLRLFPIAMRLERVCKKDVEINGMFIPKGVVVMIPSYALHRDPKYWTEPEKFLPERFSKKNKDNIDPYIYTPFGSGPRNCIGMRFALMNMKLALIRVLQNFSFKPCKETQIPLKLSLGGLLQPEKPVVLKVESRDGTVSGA
Procedure: (§1) All fluorogenic based assays were performed in Black Costar 96-well plates according to Crespi et al 1997 with minor modifications (Crespi C L, Miller V P & Penman B W (1997). Microtiter plate assays for inhibition of human, drug-metabolizing cytochromes P450. Anal. Biochem. Vol 248, 1898-1900). Assay conditions are outlined in Table 5a. For cytochrome P450 3A4, three different fluorogenic substrates were used. Each reaction mixture consisted of the appropriate concentration of enzyme, NADPH-generating system (“NADPH” means β-nicotinamide adenine dinucleotide phosphate, reduced), substrate in sodium/potassium buffer (pH 7.4). For each cytochrome P450 batch Michealis-Menten kinetics were determined using 11 concentrations.
(§2) Thereafter, further dilutions were made in acetonitrile. […] The compounds were serially diluted to give final concentrations ranging from 1 nM to 10 μM. The reaction mixtures, whereby 1 μL of buffer was replaced by compound solution, were pre-warmed for 5 min at 37° C. and the reaction was initiated by the addition of β-nicotinamide adenine dinucleotide phosphate (NADP+). Reactions were terminated by addition of stopping reagent and the fluorescence was measured using a Fluoroscan (Labsystems, Brussel, Belgium).
(§3) In Table 5a, the following abbreviations were used: 3-cyano-7-ethocycoumarin (CEC), 7-methoxy-4-trifluoromethylcoumarin (MFC), 3-[2-(N,N-diethyl-N-methylamino)ethyl]-7-methoxy-4-methylcoumarin (AMMC), 7-benzyloxy-trifluoromethyl coumarin (BFC), 7-benzyloxyquinoline (BQ) and dibenzyl fluorescein (DBF).

CYP1A2 = biological target: T1, CYP1A2 (Homo sapiens, UniProt P05177); assay: Cytochrome P450 inhibition, Protocol A, cDNA expressed proteins, fluorogenic substrate; type: in vitro ADME; details: % inhibition at 10 μM; substrate CEC; cDNA expressed protein
T1 sequence (P05177 1-516): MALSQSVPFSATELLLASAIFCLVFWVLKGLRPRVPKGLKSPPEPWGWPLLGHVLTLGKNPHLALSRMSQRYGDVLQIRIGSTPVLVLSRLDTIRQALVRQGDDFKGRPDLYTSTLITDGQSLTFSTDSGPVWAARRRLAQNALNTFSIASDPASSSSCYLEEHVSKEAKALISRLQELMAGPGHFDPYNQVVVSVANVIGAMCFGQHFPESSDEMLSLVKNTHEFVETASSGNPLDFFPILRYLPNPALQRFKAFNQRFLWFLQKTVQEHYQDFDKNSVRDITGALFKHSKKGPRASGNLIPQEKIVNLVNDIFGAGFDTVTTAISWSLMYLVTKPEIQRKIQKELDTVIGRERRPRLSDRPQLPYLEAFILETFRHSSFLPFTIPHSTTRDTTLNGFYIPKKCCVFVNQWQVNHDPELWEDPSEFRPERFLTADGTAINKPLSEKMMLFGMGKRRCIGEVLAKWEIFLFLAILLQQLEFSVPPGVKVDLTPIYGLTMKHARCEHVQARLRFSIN
Procedure: as §1, §2, §3

CYP2C9 = CYP2C9 (Homo sapiens, UniProt P11712); assay: as above; type: in vitro ADME; details: % inhibition at 10 μM; substrate MFC; cDNA expressed protein
CYP2C9, sequence (P11712 whole entry): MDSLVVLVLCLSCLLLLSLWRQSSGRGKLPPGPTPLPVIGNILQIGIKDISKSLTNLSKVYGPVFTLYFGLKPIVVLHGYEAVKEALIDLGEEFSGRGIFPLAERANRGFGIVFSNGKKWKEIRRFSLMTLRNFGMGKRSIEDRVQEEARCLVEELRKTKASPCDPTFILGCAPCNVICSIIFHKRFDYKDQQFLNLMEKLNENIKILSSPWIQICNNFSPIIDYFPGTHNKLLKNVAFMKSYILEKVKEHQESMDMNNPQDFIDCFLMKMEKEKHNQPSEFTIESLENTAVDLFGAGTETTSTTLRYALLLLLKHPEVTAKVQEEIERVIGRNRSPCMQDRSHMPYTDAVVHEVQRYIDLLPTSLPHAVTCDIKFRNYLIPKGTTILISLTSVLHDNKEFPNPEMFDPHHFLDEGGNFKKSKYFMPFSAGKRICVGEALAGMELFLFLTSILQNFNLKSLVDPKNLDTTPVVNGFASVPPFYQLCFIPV
Procedure: as §1, §2, §3

CYP2D6 = CYP2D6 (Homo sapiens, UniProt P10635); assay: as above; type: in vitro ADME; details: % inhibition at 10 μM; substrate AMMC; cDNA expressed protein
CYP2D6, sequence (P10635 whole entry): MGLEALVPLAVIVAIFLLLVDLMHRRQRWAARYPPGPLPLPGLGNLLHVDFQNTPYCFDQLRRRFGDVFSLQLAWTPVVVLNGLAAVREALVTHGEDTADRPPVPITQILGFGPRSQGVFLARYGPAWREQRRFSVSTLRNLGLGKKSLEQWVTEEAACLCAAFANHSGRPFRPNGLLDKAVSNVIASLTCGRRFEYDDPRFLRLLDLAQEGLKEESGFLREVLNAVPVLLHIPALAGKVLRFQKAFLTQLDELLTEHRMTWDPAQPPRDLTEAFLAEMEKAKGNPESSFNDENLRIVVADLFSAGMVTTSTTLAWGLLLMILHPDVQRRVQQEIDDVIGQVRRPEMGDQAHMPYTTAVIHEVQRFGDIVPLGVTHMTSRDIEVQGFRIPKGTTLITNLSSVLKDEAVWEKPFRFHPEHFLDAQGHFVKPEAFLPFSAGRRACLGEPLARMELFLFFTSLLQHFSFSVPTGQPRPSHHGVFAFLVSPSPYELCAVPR
Procedure: as §1, §2, §3

[1] = system: Sporothrix schenkii B62482; assay: Antifungal activity in vitro (resazurin susceptibility screen), Inf. A; type: cell-based; details: Sporothrix, B62482, Sporothrix schenkii B62482; 27 °C, 4 days, resa time 24 hours; highest in-test concentration 64 μM; read-out: Inf. A pIC50 (converted)
Procedure: (§4) The standard susceptibility screen was performed in 96-well plates (U-bottom, Greiner Bio-One). […] These serial dilutions (10 n1) were then spotted onto test-plates that could be stored in the dark at 4° C. for a maximum period of 2 weeks. […] The different fungal species/isolates (Table 3a) were cryopreserved and 1/1000 diluted in medium just prior to use. A standard inoculum of 200 μl containing 10^3 colony-forming unit (cfu) was then added to each well. A positive control (100% growth=fungal culture without antifungal) and a negative control (0% growth ═RPMI-MOPS medium) were included on each plate. […] [table]

Microsporum canis B68128 = assay: Antifungal activity in vitro (resazurin susceptibility screen), Inf. B; type: cell-based; details: 27 °C, 9 days, resa time 24 hours; for IC50: Microsporum canis, B68128, Microsporum canis B68128, read-out: Inf. B pIC50 (converted)
Procedure: (§5) The standard susceptibility screen was performed in 96-well plates (U-bottom, Greiner Bio-One). […] These serial dilutions (10 n1) were then spotted onto test-plates that could be stored in the dark at 4° C. for a maximum period of 2 weeks. […] A standard inoculum of 200 μl containing 10^3 colony-forming unit (cfu) was then added to each well. A positive control (100% growth=fungal culture without antifungal) and a negative control (0% growth ═RPMI-MOPS medium) were included on each plate.

[2] = system: Trichophyton rubrum B68183; assay: Antifungal activity in vitro (resazurin susceptibility screen), Inf. C; type: cell-based; details: Trichophyton rubrum B68183; 27 °C, 7 days, resa time 24 hours; read-out: Inf. C pIC50 (converted)
Procedure: as §4

[3] = system: Candida parapsilosis B66126; assay: Antifungal activity in vitro (resazurin susceptibility screen), Inf. D; type: cell-based; details: Lodderomyces parapsilosis; Candida parapsilosis B66126; 37 °C, 24 hours, resa time 4 hours; read-out: Inf. D pIC50 (converted)
Procedure: as §5

[4] = system: Aspergillus fumigatus B42928; assay: Antifungal activity in vitro (resazurin susceptibility screen), Inf. E; type: cell-based; details: Aspergillus fumigatus B42928; 27 °C, 48 hours, resa time 17 hours; read-out: Inf. E pIC50 (converted)
Procedure: as §4

[5] = system: Cryptococcus neoformans B66663; assay: Antifungal activity in vitro (resazurin susceptibility screen), Inf. F; type: cell-based; details: 37 °C, 24 hours, resa time 4 hours; for IC50: Cryptococcus neoformans, B66663, Cryptococcus neoformans B66663, read-out: Inf. F pIC50 (converted)
Procedure: as §4

[6] = system: Trichophyton mentagrophytes B70554; assay: Antifungal activity in vitro (resazurin susceptibility screen), Inf. G; type: cell-based; details: Trichophyton mentagrophytes, B70554, Trichophyton mentagrophytes B70554; 27 °C, 7 days, resa time 24 hours; read-out: Inf. G pIC50 (converted)
Procedure: as §5

[7] = Liver metabolic stability assay, hLM; type: in vitro ADME, human; details: human liver microsomes, 1 mg protein/ml, 5 μM test compound, 15 min, 37 °C
Procedure: Liver preparations (microsomal fractions) were obtained from BD Gentest (San Jose, Calif., US). Metabolic stability was assessed using the following assay conditions. […] The mixture was pre-incubated at 37° C. for 5 min and the enzymatic reaction was started by addition of 5 μM test compound. After 0 (control) and 15 minutes (min), the reactions were terminated by addition of […] (500 μl). The precipitated material was removed by centrifugation at 1200 g for 10 min. The supernatant was analysed by LC-MS/MS on a ThermoFinnigan LCQ Deca XP ion-trap mass spectrometer equipped with an atmospheric pressure chemical ionisation source. Calculation of %-compound remaining was as described by Kantharaj et al. 2003 ((Kantharaj E., Tuytelaars A, Proost P E A, Ongel Z, van […] (2003). Simultaneous measurement of drug metabolic stability and identification of metabolites using ion-trap mass spectrometry.

hCYP3A4_BFC_Pct_Inh (CYP3A4) [%] | hCYP3A4_BQ_Pct_Inh (CYP3A4) [%] | hCYP3A4_DBF_Pct_Inh (CYP3A4) [%] | hCYP1A2_CEC_Pct_Inh (CYP1A2) [%] | hCYP2C9_MFC_Pct_Inh (CYP2C9) [%] | hCYP2D6_AMMC_Pct_Inh (CYP2D6) [%] | IC50 (Microsporum canis B68128) [µM] | IC50 [5] [µM] | %-compound metabolised_Met_hLM [7] [%] | Structure (SMILES) | IC50 [1] [µM] | IC50 [2] [µM] | IC50 [3] [µM] | IC50 [4] [µM] | IC50 [6] [µM] | melting point [°C] | Inf. B pIC50 (Microsporum canis B68128; Microsporum canis B68128) | Inf. F pIC50 ([5]; Cryptococcus neoformans B66663)
7 | 50 | 40 | 21 | 69 | 20 |  |  |  | CC(=O)c1ccc(C2=NCc3ccc(Cl)cc3-n3cccc32)cc1 [drawing 86] |  |  |  |  |  |  |  | 
2 | 33 | 21 | 33 | 82 | 18 |  |  |  | CC(=O)c1ccc(C2=NCc3c(Cl)cccc3-n3cccc32)cc1 [drawing 88] |  |  |  |  |  |  |  | 
45 | 62 | 64 | 60 | 41 | 52 |  |  |  | CCc1ccc(C2=NCc3c(Cl)cccc3-n3cccc32)cc1 [drawing 89] |  |  |  |  |  |  |  | 
5 | 17 | 1 | 5 | 48 | 5 |  |  |  | CS(=O)(=O)c1ccc(C2=NCc3c(Cl)cccc3-n3cccc32)cc1 [drawing 90] |  |  |  |  |  |  |  | 

More lines, now with the values behind:

Structure (SMILES) | hCYP3A4_BFC_Pct_Inh (CYP3A4) [%] | hCYP3A4_BQ_Pct_Inh (CYP3A4) [%] | hCYP3A4_DBF_Pct_Inh (CYP3A4) [%] | hCYP1A2_CEC_Pct_Inh (CYP1A2) [%] | hCYP2C9_MFC_Pct_Inh (CYP2C9) [%] | hCYP2D6_AMMC_Pct_Inh (CYP2D6) [%] | IC50 (Microsporum canis B68128) [µM] | IC50 [5] [µM] | %-compound metabolised_Met_hLM [7] [%] | IC50 [1] [µM] | IC50 [2] [µM] | IC50 [3] [µM] | IC50 [4] [µM] | IC50 [6] [µM] | melting point [°C] | Inf. B pIC50 (Microsporum canis B68128; Microsporum canis B68128) | Inf. F pIC50 ([5]; Cryptococcus neoformans B66663)
CC(=O)c1ccc(C2NCc3c(Cl)cccc3-n3cccc32)cc1.Cl (stereo not drawn) | 57 | 57 | 70 | 12 | 54 | 53 |  |  |  |  |  |  |  |  |  |  | 
CCc1ccc(C2NCc3c(Cl)cccc3-n3cccc32)cc1.Cl (stereo not drawn) | 64 | 57 | 69 | 48 | 68 | 96 |  |  |  |  |  |  |  |  |  |  | 
CCc1ccc(C2=NCc3ccc(Cl)cc3-n3cccc32)cc1 | 55 | 66 | 70 | 40 | 50 | 33 |  |  |  |  |  |  |  |  |  |  | 
CC(=O)c1ccc(C2NCc3ccc(Cl)cc3-n3cccc32)cc1 (stereo not drawn) [Compound 8, 1-[4-(9-chloro-5,6-dihydro-4H-pyrrolo[1,2-a][1,4]benzodiazepin-4-yl)phenyl]-ethanone] |  |  |  |  |  |  | > 63.1 | 50.1 |  | 31.6 | 2 | > 63.1 | 12.6 | 5.01 | 185.4 to 186.9 |  | 
CC(=O)c1ccc(C2NCc3c(Cl)cc(Cl)cc3-n3cccc32)cc1 (stereo not drawn) [Compound 11, 1-[4-(7,9-dichloro-5,6-dihydro-4H-pyrrolo[1,2-a][1,4]benzodiazepin-4-yl)phenyl]-ethanone] |  |  |  |  |  |  |  |  |  | 50.1 | 2 | > 63.1 | > 63.1 | 5.01 | 204.8 to 206.6 | 6.0 | 5.2
CC(=O)c1ccc(C2NCc3cc(Cl)cc(Cl)c3-n3cccc32)cc1.Cl (stereo not drawn) [Compound 14, 1-[4-(8,10-dichloro-5,6-dihydro-4H-pyrrolo[1,2-a][1,4]benzodiazepin-4-yl)phenyl]-ethanone .HCl] |  |  |  |  |  |  | 2.51 | 50.1 |  | 25.1 | 0.631 | > 63.1 | > 63.1 | 25.1 | 259.3 to 264.5 |  | 
CC(=O)c1ccc(C2=NCc3c(Cl)ccc(Cl)c3-n3cccc32)cc1 [Compound 25, 1-[4-(7,10-dichloro-6H-pyrrolo[1,2-a][1,4]benzodiazepin-4-yl)phenyl]-ethanone] | 21 | 29 | 21 | 21 | 45 | 11 | 3.16 | > 63.1 | 80 | > 63.1 | 5.01 | > 63.1 | > 63.1 | 10 |  |  | 
CS(=O)(=O)c1ccc(C2=NCc3c(F)cccc3-n3cccc32)cc1 [Compound 29, 7-fluoro-4-[4-(methylsulfonyl)phenyl]-6H-pyrrolo[1,2-a][1,4]benzodiazepine] |  |  |  |  |  |  | 10 | 31.6 |  | > 63.1 | 2.51 | > 63.1 | 50.1 | 6.31 | 92 to 95 |  | 
CS(=O)(=O)c1cccc(C2=NCc3c(Cl)cc(Cl)cc3-n3cccc32)c1 [Compound 31, 7,9-dichloro-4-[3-(methylsulfonyl)phenyl]-6H-pyrrolo[1,2-a][1,4]benzodiazepine] |  |  |  |  |  |  | > 63.1 | > 63.1 |  | > 63.1 | > 63.1 | > 63.1 | > 63.1 | > 63.1 | 221.2 to 221.5 |  | 
